Experimental data as given in patent US20250049810A1, “METHODS OF TREATING A RAS PROTEIN-RELATED DISEASE OR DISORDER” (Revolution Medicines, Inc., priority 2023, published 2025).
Read-outs that look alike come from different tables or passages of the source.

Legend:
KRAS^G12C CRC = test: Phase 1/1b study: tumor response per RECIST 1.1 in KRAS G12C CRC; assay type: in vivo, human
Experimental: (§1) This Example describes the study design of a Phase 1/1b study of Compound A in patients with advanced KRAS^G12C solid tumors with the first patient dosed in September 2022. There are two components in this study: Part 1—Dose Escalation and Part 2—Dose Expansion (FIG. 1). In Part 1—Dose Escalation, an assessment of safety and tolerability are conducted, and the candidate recommended Phase 2 dose and schedule (RP2DS) are determined for further testing in the Dose Expansion Part. Part 2 of the study evaluates the safety and antitumor effects of the candidate RP2DS in KRAS^G12C-mutant solid tumors.
(§2) Subjects are assessed for response using Response Evaluation Criteria in Solid Tumors (version 1.1) (RECIST [v1.1]). All subjects with previous or current, known or suspected brain metastases must have a magnetic resonance imaging (MRI) of the brain (unless contraindicated) performed within 28 days prior to the first dose of Compound A (C1D1). Disease response for clinical management of subjects were assessed per RECIST (v1.1).
(§3) Patients with previously treated, advanced […] solid tumors received escalating doses of Compound A. Doses included 50 mg, 100 mg, and 200 mg once daily (QD) and 100 mg, 200 mg, 300 mg, and 400 mg twice daily (BID). Each cycle had 21 days, with efficacy assessed every 6 weeks. Additional patients were enrolled to backfill cohorts at dose levels that cleared dose-limiting toxicity evaluation to further characterize PK, safety, and anti-tumor activity of Compound A as described in Example 1.

[1] = system: xenograft models of human KRAS^G12C cancers; test: Xenograft / preclinical models of KRAS G12C cancers; assay type: in vivo
[2] = Phase 1/1b study: Compound A pharmacokinetics in patients; assay type: in vivo, human; conditions: for Tmax / half-life: human, oral, plasma; for Tmax: read-out: median Tmax
Experimental: as §1
Whole-blood samples were collected from all subjects to measure Compound A concentrations, circulating tumor deoxyribonucleic acid (ctDNA) and other biomarkers. Samples for pharmacodynamic assays collected in Cycle 1 and beyond. Paired pretreatment and on treatment fresh tumor samples collected from any subject if consent is obtained and at the discretion of the treating physician. Optional collection of pre-study treatment fresh biopsy should be performed prior to C1D1 dosing. An optional on-study treatment biopsy may be obtained with subject consent and at the discretion of the treating physician. The primary purpose of the optional on-study treatment biopsies is to assess pharmacodynamic markers and previously acquired pre-study treatment markers of resistance. Biopsy assessment with study intervention treatment over time may also help with better understanding of the shift in mutational profile with study treatment, as well as cellular clonality changes over time. Where tumor tissue allows, predictive biomarkers of response are explored.
Initially Compound A will be administered orally QD for a treatment cycle of 21 days. BID dosing be administered to subjects who are enrolled into Dose level 3 and higher dose levels during escalation as well. For subjects on BID dosing, the second dose of Compound A is administered approximately 10 to 12 hours after the first dose is administered.
as §3

[3] = system: human cancer cell lines harboring the KRAS^G12C mutation; test: Growth suppression and apoptosis in KRAS G12C cancer cell lines; assay type: cell-based; conditions: multiple human cancer cell lines harboring KRAS^G12C
KRAS^G12C NSCLC = test: Phase 1/1b study: tumor response per RECIST 1.1 in KRAS G12C NSCLC; assay type: in vivo, human; conditions: for patients who responded (response rate): all doses
Experimental: as §1, §2, §3

[4] = Phase 1/1b study: safety, treatment-related adverse events; assay type: in vivo, human
Experimental: as §1
Safety assessments and procedures were performed. Real-time safety monitoring is performed to ensure that the protocol-specified dose modification guidelines are followed. In addition, C1 safety and available PK and pharmacodynamic data reviewed and evaluated at each Compound A dose level/schedule to determine whether enrollment into the next higher dose-level cohort could proceed. A modified schedule evaluated in which Compound A may be administered more or less frequently than once daily (QD). The totality of the data from dose escalation cohorts is reviewed and one or more candidate RP2DS for expansion in Part 2 can be recommended.
as §3

[5] = FIG. 3, CRC naive to KRAS^G12C(OFF) inhibitor, RECIST 1.1
[6] = 47 patients, all doses, as of Aug. 8, 2023

CCn1c(-c2cccnc2[C@H](C)OC)c2c3cc(ccc31)N1CCO[C@@H](C[C@H](NC(=O)[C@H](C(C)C)N(C)C(=O)C3(F)CCN(C(=O)C#CC(C)(C)N(C)C)CC3)C(=O)N3CCC[C@H](N3)C(=O)OCC(C)(C)C2)C1 (atropisomer, axis not shown) [Compound A]
disease control rate (KRAS^G12C CRC; CRC, not previously treated with G12C(OFF) inhibitor): 80%
patients with partial response (KRAS^G12C CRC; CRC, not previously treated with G12C(OFF) inhibitor, 8 of 20, as of Oct. 5, 2023): 40%
confirmed PR, number of patients (KRAS^G12C CRC; [5]): 5
unconfirmed PR, number of patients (KRAS^G12C CRC; [5]): 3
response in preclinical models compared to adagrasib ([1]; compared to the KRAS^G12C(OFF) inhibitor adagrasib): superior response rate, deeper regressions and longer duration of response
anti-tumor activity in vivo ([1]; multiple xenograft models of human KRAS^G12C cancers): dose-dependent and durable tumor regressions
Tmax ([2]; 13 subjects, data as of May 15, 2023): 1 h
half-life ([2]; 13 subjects, data as of May 15, 2023, read-out: terminal half-life in the plasma): < 3 h
Tmax ([2]; patients, data as of Aug. 8, 2023): 1 h
half-life ([2]; patients, data as of Aug. 8, 2023, read-out: terminal half-life (converted)): 1.8 h
exposure ([2]; patients, escalating oral doses 50 mg QD to 400 mg BID): dose-dependent exposure
AUC ([2]; range of 50-200 mg): increased in a dose-dependent manner
Cmax ([2]; range of 50-200 mg): increased in a dose-dependent manner
mean accumulation ratio (C1D15 AUC vs C1D1 AUC) ([2]; repeated daily dosing): less than 2 ×
effect on cancer cell lines in vitro [3]: growth suppression and apoptosis
confirmed PR, number of patients (KRAS^G12C NSCLC; FIG. 2, NSCLC, RECIST 1.1): 5
unconfirmed PR, number of patients (KRAS^G12C NSCLC; FIG. 2, NSCLC, RECIST 1.1): 3
disease control rate (KRAS^G12C NSCLC; NSCLC, both sets of patients (G12C(OFF) inhibitor naive and pretreated)): 100%
patients who responded (response rate) (KRAS^G12C NSCLC; NSCLC, not previously treated with G12C(OFF) inhibitor, three of seven, as of Oct. 5, 2023): 43%
patients who responded (response rate) (KRAS^G12C NSCLC; NSCLC, previously treated with G12C(OFF) inhibitor, 5 of 10, as of Oct. 5, 2023): 50%
Gr3 TRAE QTc prolongation, number of patients ([4]; 200 mg BID): 1 patients
Gr3 TRAE QTc prolongation, number of patients ([4]; 300 mg): 1 patients
Gr3 TRAE QTc prolongation, number of patients ([4]; 400 mg BID): 3 patients
TRAE QTc prolongation, patients [4, 6]: 21%
TRAE diarrhea, patients [4, 6]: 30%
TRAE fatigue, patients [4, 6]: 15%
TRAE nausea, patients [4, 6]: 34%
TRAE vomiting, patients [4, 6]: 15%
Gr3 TRAE QTc prolongation, number of patients ([4]; all doses): 5 patients
treatment-emergent AE that led to treatment discontinuation ([4]; all doses): No patients
treatment-related Gr4 or 5 AE ([4]; all doses): No patients
treatment-related ≥Gr3 hepatotoxicity ([4]; all doses): No treatment-related ≥Gr3 hepatotoxicity was observed
patients with average QTc interval >501 ms ([4]; out of the 5 patients with Gr3 QTc prolongation): one
